Test results published in US7973043B2, “Combination therapy for depression, prevention of suicide, and various medical and psychiatric conditions” (priority 2002, dated 2011).

Assays:
[1] = before the X-ray changes; cited from earlier work
[2] = combined data from many studies; cited from earlier work
[3] = cited from earlier work; for annual risk of TD as fraction of the risk associated with haloperidol: relative to haloperidol
D2 receptor = D2 receptor (Homo sapiens, UniProt P14416); settings: relative to risperidone and olanzapine; cited from earlier work
D2 receptor, sequence (P14416 whole entry): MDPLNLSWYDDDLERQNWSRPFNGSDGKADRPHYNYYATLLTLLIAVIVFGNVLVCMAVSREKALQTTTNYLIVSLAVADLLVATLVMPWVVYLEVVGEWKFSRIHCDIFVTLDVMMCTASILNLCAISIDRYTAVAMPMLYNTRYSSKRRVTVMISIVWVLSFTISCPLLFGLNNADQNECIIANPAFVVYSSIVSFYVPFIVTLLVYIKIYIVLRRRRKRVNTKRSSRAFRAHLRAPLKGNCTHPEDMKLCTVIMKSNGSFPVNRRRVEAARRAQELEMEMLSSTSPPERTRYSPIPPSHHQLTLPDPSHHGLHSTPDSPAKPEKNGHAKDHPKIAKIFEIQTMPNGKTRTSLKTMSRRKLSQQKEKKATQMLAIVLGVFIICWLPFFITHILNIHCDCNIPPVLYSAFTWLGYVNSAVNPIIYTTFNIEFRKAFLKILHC

[4] = antipsychotic alone; cited from earlier work

Question: Which antidepressant effect [1] does the source give for `N[C@@H]1CONC1=O` [DCS] here?
Answer: prompt antidepressant effects

Question: With `Cc1cc2c(s1)Nc1ccccc1N=C2N1CCN(C)CC1` [olanzapine] as the compound, how does the “relative risk of drug-induced acute EPS in declining order” value (“relative risk of drug-induced acute EPS” for short) [2] read?
Answer: risperidone >ziprasidone >=olanzapine >quetiapine

Question: What about the “One year risk of TD” value ([3]; all patients) of the same compound?
Answer: 0.52%

Question: And the “annual risk of TD as fraction of the risk associated with haloperidol” value [3]?
Answer: about 1/12

Question: For `OCCOCCN1CCN(C2=Nc3ccccc3Sc3ccccc32)CC1` [quetiapine], which adverse effect (hypothetical cases) is on record?
Answer: lightheadedness

Question: What about the “time until suicidality vanishes” value (second hypothetical case, MDD, quetiapine 50 mg added to paroxetine 20 mg q d) of the same compound?
Answer: 24 h

Question: What about the “dissociation from the dopamine receptor” value (D2 receptor) of the same compound?
Answer: fast dissociation

Question: And the “relative risk of drug-induced acute EPS” value [2]?
Answer: risperidone >ziprasidone >=olanzapine >quetiapine

Question: What does the source list for `Cc1nc2n(c(=O)c1CCN1CCC(c3noc4cc(F)ccc34)CC1)CCCC2` [risperidone]?
Answer: annual risk of TD as fraction of the risk associated with haloperidol [3]: ⅙; activity in the chronic mild stress (CMS) model [4]: ineffective

Question: For `O=C1Cc2cc(CCN3CCN(c4nsc5ccccc45)CC3)c(Cl)cc2N1` [ziprasidone], which “relative risk of drug-induced acute EPS” value [2] is on record?
Answer: risperidone >ziprasidone >=olanzapine >quetiapine
